Results: US20260356856A1, “KRAS G12S AND G12C INHIBITORS” (MIRATI THERAPEUTICS, INC., priority 2023, published 2026)

Experiments:
[1] = target: T1, KRas-mediated phosphorylation of ERK in A549 cells (Homo sapiens, UniProt P01116, G12S); test: Inhibition of KRas-mediated phosphorylation of ERK (HTRF), A549 cells; assay type: cell-based; settings: HTRF pERK, 3 h incubation
T1 construct: pERK HTRF read-out

[2] = target: T2, KRas-mediated phosphorylation of ERK in MKN1 cells (Homo sapiens, UniProt P01116); test: Inhibition of KRas-mediated phosphorylation of ERK (HTRF), MKN1 cells; assay type: cell-based; settings: MKN1 cells (KRas WT); HTRF pERK; 3 h incubation
T2 construct: pERK HTRF read-out
Procedure: Inhibition of KRas Phosphorylation of ERK (HTRF) by Exemplary Compounds of Formula (Ia) or (Ib)
Cisbio HTRF Advanced pERK Assay Catalog #64AERPEH • Cells: MKN1, PSN1 • Procedure: • 1. Day 1: Seed 6,000 cells/well −25 μl/well in 384-well white solid bottom plate; RPM1_10% FBS. Incubate overnight at 37 °C/5% CO2. • 2.

[3] = target: T3, KRas G12C (Homo sapiens, UniProt P01116, G12C); test: KRas binding assay, TR-FRET displacement of Cy5 labelled tracer; settings: 60-minute incubation at room temperature, 1% DMSO, pH 7.5
T3 construct: Biotinylated KRas (corresponding to amino acids 1-169, produced at Accelegan Inc.); biotin (biotinylated); purchased Accelegan Inc
How it was run: (§1)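 IC50 came from fitting POC values with a four-parameter equation. Signal was read after one hour at room temperature. Protein was biotin-tagged KRas 1-169 captured by terbium streptavidin, with compound in 1% DMSO (final).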

[4] = target: T4, KRas WT (Homo sapiens, UniProt P01116); test: as above; settings: 60-minute incubation at room temperature, 1% DMSO, pH 7.5
T4 construct: Biotinylated KRas (corresponding to amino acids 1-169, produced at Accelegan Inc.); biotin (biotinylated); purchased Accelegan Inc
How it was run: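 Truncated KRas (1-169), biotinylated, Tb-streptavidin donor; one-hour room-temperature incubation; IC50 by four-parameter curve fitting.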

[5] = target: T5, KRas G12S (Homo sapiens, UniProt P01116, G12S); test: as above; settings: 60-minute incubation at room temperature, 1% DMSO, pH 7.5
T5 construct: Biotinylated KRas (corresponding to amino acids 1-169, produced at Accelegan Inc.); biotin (biotinylated); purchased Accelegan Inc
How it was run: as §1

[6] = target: T6, KRas-mediated phosphorylation of ERK in H358 cells (Homo sapiens, UniProt P01116, G12C); test: Inhibition of KRas-mediated phosphorylation of ERK (HTRF), H358 cells; assay type: cell-based; settings: HTRF pERK, 3 h incubation
T6 construct: pERK HTRF read-out
T6 sequence (P01116 1-188 isoform P01116-2 G12C): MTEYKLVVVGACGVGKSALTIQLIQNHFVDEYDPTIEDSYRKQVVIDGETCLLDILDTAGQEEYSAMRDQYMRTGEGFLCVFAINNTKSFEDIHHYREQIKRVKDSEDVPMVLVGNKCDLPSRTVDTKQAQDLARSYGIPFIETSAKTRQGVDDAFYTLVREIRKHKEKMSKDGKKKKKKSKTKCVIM

T4 sequence (P01116 1-169 isoform P01116-2): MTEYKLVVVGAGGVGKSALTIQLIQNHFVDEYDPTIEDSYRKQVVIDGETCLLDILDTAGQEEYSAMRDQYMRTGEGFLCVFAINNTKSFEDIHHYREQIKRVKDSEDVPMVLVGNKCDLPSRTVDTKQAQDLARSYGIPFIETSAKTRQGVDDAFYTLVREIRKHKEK
T2 sequence (P01116 1-188 isoform P01116-2): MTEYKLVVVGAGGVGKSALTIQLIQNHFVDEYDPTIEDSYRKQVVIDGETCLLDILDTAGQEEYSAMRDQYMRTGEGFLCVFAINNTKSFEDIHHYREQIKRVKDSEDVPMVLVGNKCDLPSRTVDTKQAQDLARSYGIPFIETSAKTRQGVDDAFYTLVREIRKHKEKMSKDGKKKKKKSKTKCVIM
T1 sequence (P01116 1-188 isoform P01116-2 G12S): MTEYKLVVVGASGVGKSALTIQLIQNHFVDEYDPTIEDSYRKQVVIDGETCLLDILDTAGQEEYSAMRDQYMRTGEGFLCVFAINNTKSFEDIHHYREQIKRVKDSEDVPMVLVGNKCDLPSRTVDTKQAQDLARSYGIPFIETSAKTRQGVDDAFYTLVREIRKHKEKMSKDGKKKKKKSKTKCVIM
T5 sequence (P01116 1-169 isoform P01116-2 G12S): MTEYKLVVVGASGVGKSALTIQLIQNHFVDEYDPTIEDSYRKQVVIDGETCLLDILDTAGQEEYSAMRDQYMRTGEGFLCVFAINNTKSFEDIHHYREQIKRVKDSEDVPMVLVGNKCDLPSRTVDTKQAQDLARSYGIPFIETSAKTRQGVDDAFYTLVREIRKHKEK
T3 sequence (P01116 1-169 isoform P01116-2 G12C): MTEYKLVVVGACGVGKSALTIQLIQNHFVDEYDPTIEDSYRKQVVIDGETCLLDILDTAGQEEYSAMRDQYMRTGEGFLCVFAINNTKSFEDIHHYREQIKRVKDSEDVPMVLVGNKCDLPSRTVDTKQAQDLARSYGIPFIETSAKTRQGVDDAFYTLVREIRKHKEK

SMILES	IC50 [1] [nM]	IC50 [2] [nM]	IC50 [3] [nM]	IC50 [4] [nM]	IC50 [5] [nM]	IC50 [6] [nM]
N#Cc1c(N)sc2c(F)ccc(-c3c(Cl)cc4c(N5CCC(C(=O)N6CCOCC6)CC5)nc(OC[C@@]56CCCN5C[C@H](F)C6)nc4c3F)c12 [Example 241, 2-amino-4-(6-chloro-8-fluoro-2-(((2R,7aS)-2-fluorotetrahydro-1H-pyrrolizin-7a(5H)-yl)methoxy)-4-(4-(morpholine-4-carbonyl)piperidin-1-yl)quinazolin-7-yl)-7-fluorobenzo [b]thiophene-3-carbonitrile]	367	27	11	5	11	163
CON(C)C(=O)C1CCN(c2nc(OC[C@@]34CCCN3C[C@H](F)C4)nc3c(F)c(-c4ccc(F)c5sc(N)c(C#N)c45)c(Cl)cc23)CC1 [Example 242, 1-(7-(2-amino-3-cyano-7-fluorobenzo[b]thiophen-4-yl)-6-chloro-8-fluoro-2-(((2R,7aS)-2-fluorotetrahydro-1H-pyrrolizin-7a(5H)-yl)methoxy)quinazolin-4-yl)-N-methoxy-N-methylpiperidine-4-carboxamide]	240	17	14	8	12	149
Cc1ccccc1OC(=O)C1CCN(c2nc(OC[C@@]34CCCN3C[C@H](F)C4)nc3c(F)c(-c4ccc(F)c5sc(N)c(C#N)c45)c(Cl)cc23)CC1 [Example 243, o-tolyl 1-(7-(2-amino-3-cyano-7-fluorobenzo[b]thiophen-4-yl)-6-chloro-8-fluoro-2-(((2R,7aS)-2-fluorotetrahydro-1H-pyrrolizin-7a(5H)-yl)methoxy)quinazolin-4-yl)piperidine-4-carboxylate]	215	736	19	330	127	26
COc1cccc(OC(=O)C2CCN(c3nc(OC[C@@]45CCCN4C[C@H](F)C5)nc4c(F)c(-c5ccc(F)c6sc(N)c(C#N)c56)c(Cl)cc34)CC2)c1 [Example 244, 3-methoxyphenyl 1-(7-(2-amino-3-cyano-7-fluorobenzo[b]thiophen-4-yl)-6-chloro-8-fluoro-2-(((2R,7aS)-2-fluorotetrahydro-1H-pyrrolizin-7a(5H)-yl)methoxy)quinazolin-4-yl)piperidine-4-carboxylate]	55	279	9	289	23	12
Cn1ccc(COC(=O)C2CCN(c3nc(OC[C@@]45CCCN4C[C@H](F)C5)nc4c(F)c(-c5ccc(F)c6sc(N)c(C#N)c56)c(Cl)cc34)CC2)n1 [Example 245, (1-methyl-1H-pyrazol-3-yl)methyl 1-(7-(2-amino-3-cyano-7-fluorobenzo[b]thiophen-4-yl)-6-chloro-8-fluoro-2-(((2R,7aS)-2-fluorotetrahydro-1H-pyrrolizin-7a(5H)-yl)methoxy)quinazolin-4-yl)piperidine-4-carboxylate]	148	15	12	6	8	148
N#Cc1c(N)sc2c(F)ccc(-c3c(Cl)cc4c(N5CCC(C(=O)N6CCCC6)CC5)nc(OC[C@@]56CCCN5C[C@H](F)C6)nc4c3F)c12 [Example 246, 2-amino-4-(6-chloro-8-fluoro-2-(((2R,7aS)-2-fluorotetrahydro-1H-pyrrolizin-7a(5H)-yl)methoxy)-4-(4-(pyrrolidine-1-carbonyl)piperidin-1-yl)quinazolin-7-yl)-7-fluorobenzo [b]thiophene-3-carbonitrile]	223	24	13	8	14	167
N#Cc1c(N)sc2c(F)ccc(-c3c(Cl)cc4c(N5CCC(C(=O)N6C7CCC6COC7)CC5)nc(OC[C@@]56CCCN5C[C@H](F)C6)nc4c3F)c12 [Example 247, 4-(4-(4-(3-oxa-8-azabicyclo[3.2.1]octane-8-carbonyl)piperidin-1-yl)-6-chloro-8-fluoro-2-(((2R,7aS)-2-fluorotetrahydro-1H-pyrrolizin-7a(5H)-yl)methoxy)quinazolin-7-yl)-2-amino-7-fluorobenzo[b]thiophene-3-carbonitrile]	677	61	21	12	24	296
Cc1ccn(C(=O)C2CCCN(c3nc(OC[C@@]45CCCN4C[C@H](F)C5)nc4c(F)c(-c5c(C#N)c(N)cc(C)c5C(F)(F)F)c(Cl)cc34)CC2)n1 (stereo partly drawn) [Example 248, 6-amino-2-(6-chloro-8-fluoro-2-(((2R,7aS)-2-fluorotetrahydro-1H-pyrrolizin-7a(5H)-yl)methoxy)-4-(4-(3-methyl-1H-pyrazole-1-carbonyl)azepan-1-yl)quinazolin-7-yl)-4-methyl-3-(trifluoromethyl)benzonitrile]	100	2920	360	669	57	4220
CN(CCNC(=O)n1ccnn1)c1nc(OC[C@@]23CCCN2C[C@H](F)C3)nc2c(F)c(-c3ccc(F)c4sc(N)c(C#N)c34)c(Cl)cc12 [Example 249, N-(2-((7-(2-amino-3-cyano-7-fluorobenzo[b]thiophen-4-yl)-6-chloro-8-fluoro-2-(((2R,7aS)-2-fluorotetrahydro-1H-pyrrolizin-7a(5H)-yl)methoxy)quinazolin-4-yl)(methyl)amino)ethyl)-1H-1,2,3-triazole-1-carboxamide]	249	223	< 2	11	7	2
CCc1c(F)ccc2cc(O)cc(-c3ncc4c(N(C)CCNC(=O)n5ccnn5)nc(OC[C@@]56CCCN5C[C@H](F)C6)nc4c3F)c12 [Example 250, N-(2-((7-(8-ethyl-7-fluoro-3-hydroxynaphthalen-1-yl)-8-fluoro-2-(((2R,7aS)-2-fluorotetrahydro-1H-pyrrolizin-7a(5H)-yl)methoxy)pyrido[4,3-d]pyrimidin-4-yl)(methyl)amino)ethyl)-1H-1,2,3-triazole-1-carboxamide]	1680	357	< 2	37	34	8
CCc1c(F)ccc2cc(O)cc(-c3ncc4c(N(C)CCNC(=O)n5nccn5)nc(OC[C@@]56CCCN5C[C@H](F)C6)nc4c3F)c12 [Example 251, N-(2-((7-(8-ethyl-7-fluoro-3-hydroxynaphthalen-1-yl)-8-fluoro-2-(((2R,7aS)-2-fluorotetrahydro-1H-pyrrolizin-7a(5H)-yl)methoxy)pyrido[4,3-d]pyrimidin-4-yl)(methyl)amino)ethyl)-2H-1,2,3-triazole-2-carboxamide]	5440	1280	21	70	65	66
N#Cc1c(N)sc2c(F)ccc(-c3c(Cl)cc4c(N5CCN(S(=O)(=O)n6ccnn6)CC5)nc(OC[C@@]56CCCN5C[C@H](F)C6)nc4c3F)c12 [Example 252, 4-(4-(4-((1H-1,2,3-triazol-1-yl)sulfonyl)piperazin-1-yl)-6-chloro-8-fluoro-2-(((2R,7aS)-2-fluorotetrahydro-1H-pyrrolizin-7a(5H)-yl)methoxy)quinazolin-7-yl)-2-amino-7-fluorobenzo[b]thiophene-3-carbonitrile]	806	156	48	39	77	391
CC(=O)N(C)C(=O)C1CCN(c2nc(OC[C@@]34CCCN3C[C@H](F)C4)nc3c(F)c(-c4ccc(F)c5sc(N)c(C#N)c45)c(Cl)cc23)CC1 [Example 253, N-acetyl-1-(7-(2-amino-3-cyano-7-fluorobenzo[b]thiophen-4-yl)-6-chloro-8-fluoro-2-(((2R,7aS)-2-fluorotetrahydro-1H-pyrrolizin-7a(5H)-yl)methoxy)quinazolin-4-yl)-N-methylpiperidine-4-carboxamide]	14	37	8	10	8	61
CC(=O)N(C)C(=O)C1CCN(c2nc(OC[C@@]34CCCN3C[C@H](F)C4)nc3c(F)c(-c4ccc(F)c5sc(N)c(C#N)c45)c(Cl)cc23)CC1 [Example 254, N-acetyl-1-((S)-7-(2-amino-3-cyano-7-fluorobenzo[b]thiophen-4-yl)-6-chloro-8-fluoro-2-(((2R,7aS)-2-fluorotetrahydro-1H-pyrrolizin-7a(5H)-yl)methoxy)quinazolin-4-yl)-N-methylpiperidine-4-carboxamide]	5	18	3	4	3	29
